Data as given in the supplement of paper PMC10307832.

How the values were obtained:
Test in all cases: relative viability (nuclei count vs DMSO), 5 days (fraction); higher = more cells survive
Erlotinib + Olaparib = compound: C#Cc1cccc(Nc2ncnc3cc(OCCOC)c(OCCOC)cc23)c1 [Erlotinib] + O=C(c1cc(Cc2n[nH]c(=O)c3ccccc23)ccc1F)N1CCN(C(=O)C2CC2)CC1 [Olaparib] (partner 8 µM)
How it was run: (§1)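 Relative viability was taken as the ratio of nuclei in treated wells to nuclei in vehicle wells. Lung cancer cell lines in 1536-well plates received compounds by pin tool one day after seeding, either one drug alone or a fixed anchor-drug dose plus five library-drug doses (not always all listed) in √10 steps. Nuclei were counted on 4× images after 5 days of treatment, and values are medians of duplicate plates.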

AT9283 + Foretinib = compound: O=C(Nc1c[nH]nc1-c1nc2ccc(CN3CCOCC3)cc2[nH]1)NC1CC1 [AT9283] + COc1cc2c(Oc3ccc(NC(=O)C4(C(=O)Nc5ccc(F)cc5)CC4)cc3F)ccnc2cc1OCCCN1CCOCC1 [Foretinib] (partner 0.25 µM)
How it was run: as §1

AT9283 + Tozasertib = compound: O=C(Nc1c[nH]nc1-c1nc2ccc(CN3CCOCC3)cc2[nH]1)NC1CC1 [AT9283] + Cc1cc(Nc2cc(N3CCN(C)CC3)nc(Sc3ccc(NC(=O)C4CC4)cc3)n2)n[nH]1 [Tozasertib] (partner 0.1 µM)
How it was run: as §1

Erlotinib + Luminespib = compound: C#Cc1cccc(Nc2ncnc3cc(OCCOC)c(OCCOC)cc23)c1 [Erlotinib] + CCNC(=O)c1noc(-c2cc(C(C)C)c(O)cc2O)c1-c1ccc(CN2CCOCC2)cc1 [Luminespib] (partner 0.01 µM)
How it was run: as §1

Erlotinib + OSI-027 = compound: C#Cc1cccc(Nc2ncnc3cc(OCCOC)c(OCCOC)cc23)c1 [Erlotinib] + COc1cccc2cc(-c3nc([C@H]4CC[C@H](C(=O)O)CC4)n4ncnc(N)c34)[nH]c12 [OSI-027] (partner 0.5 µM)
How it was run: as §1

| Cell Line | relative viability (Erlotinib + Olaparib; first compound 0.02 µM) | relative viability (Erlotinib + Olaparib; first compound 0.2 µM) | relative viability (Erlotinib + Olaparib; first compound 0.6325 µM) | relative viability (AT9283 + Foretinib; first compound 0.003 µM) | relative viability (AT9283 + Foretinib; first compound 0.03 µM) | relative viability (AT9283 + Foretinib; first compound 0.09487 µM) | relative viability (AT9283 + Foretinib; first compound 0.3 µM) | relative viability (AT9283 + Tozasertib; first compound 0.003 µM) | relative viability (AT9283 + Tozasertib; first compound 0.03 µM) | relative viability (AT9283 + Tozasertib; first compound 0.09487 µM) | relative viability (AT9283 + Tozasertib; first compound 0.3 µM) | relative viability (Erlotinib + Luminespib; first compound 0.02 µM) | relative viability (Erlotinib + Luminespib; first compound 0.2 µM) | relative viability (Erlotinib + Luminespib; first compound 0.6325 µM) | relative viability (Erlotinib + Luminespib; first compound 2 µM) | relative viability (Erlotinib + OSI-027; first compound 0.02 µM) | relative viability (Erlotinib + OSI-027; first compound 0.2 µM) | relative viability (Erlotinib + OSI-027; first compound 0.6325 µM) | relative viability (Erlotinib + OSI-027; first compound 2 µM) | relative viability (Erlotinib + Olaparib; first compound 2 µM) |
| --- | --- | --- | --- | --- | --- | --- | --- | --- | --- | --- | --- | --- | --- | --- | --- | --- | --- | --- | --- | --- |
| SW 900 | 0.907 | 0.846 | 0.84 | 1.1 | 0.898 | 0.866 | 0.366 | 0.476 | 0.526 | 0.359 | 0.307 | 0.201 | 0.172 | 0.178 | 0.173 | 0.584 | 0.598 | 0.642 | 0.374 |  |
| ABC-1 |  | 1.01 | 1.03 | 1.02 | 0.15 | 0.178 | 0.153 | 0.198 | 0.17 | 0.172 | 0.183 |  | 0.684 | 0.771 | 0.601 | 0.582 | 0.386 | 0.361 | 0.346 | 0.769 |
| EPLC-272H | 0.704 | 0.711 | 1.01 | 0.622 | 0.217 | 0.12 | 0.123 | 0.306 | 0.192 | 0.203 | 0.159 | 0.176 | 0.233 | 0.326 | 0.196 | 0.342 | 0.304 | 0.26 | 0.196 | 0.575 |
| HCC-15 | 0.701 | 0.753 | 0.715 | 1.02 | 0.397 | 0.161 | 0.19 | 0.25 | 0.134 | 0.126 | 0.0965 | 0.241 | 0.376 | 0.236 | 0.208 | 0.702 | 0.736 | 0.676 | 0.588 | 0.626 |
| NCI-H520 | 0.413 | 0.343 | 0.37 | 0.95 | 0.326 | 0.337 | 0.295 | 0.48 | 0.435 | 0.423 | 0.251 | 0.242 | 0.23 | 0.253 | 0.248 | 0.282 | 0.387 | 0.271 | 0.226 | 0.335 |
| EKVX | 0.839 | 0.476 | 0.385 | 0.775 | 0.728 | 0.626 | 0.257 | 0.377 | 0.312 | 0.317 | 0.183 | 0.833 | 0.615 | 0.444 | 0.207 | 0.679 | 0.506 | 0.34 | 0.187 | 0.183 |
| NCI-H596 | 0.776 | 0.635 | 0.674 | 0.813 | 0.822 | 0.744 | 0.59 | 0.943 | 0.839 | 0.933 | 0.553 | 1.07 | 0.848 | 0.893 | 0.878 | 0.675 | 0.528 | 0.537 | 0.408 | 0.586 |
| NCI-H2009 | 0.783 | 0.73 | 0.792 | 1.29 | 1.07 | 0.438 | 0.29 | 0.737 | 0.514 | 0.399 | 0.226 | 1.04 | 1.03 | 1.09 | 0.944 | 0.759 | 0.653 | 0.65 | 0.414 | 0.627 |
